Experimental data from patent publication US12065441B2, “Pyrazolopyrimidine derivative, use thereof and pharmaceutical composition” (GENGLE THERAPEUTICS, INC., priority 2018, dated 2024).
Read-outs that look alike come from different tables or passages of the source.

Experiments:
JAK2 = JAK2 (Homo sapiens, UniProt O60674); experiment: Caliper Mobility Shift Assay, kinase enzyme activity, JAK2; type: biochemical; details: for inhibitory effect on kinase JAK2 (in words): JAK2, summary of Table 1; for IC50: JAK2, read-out: Kinase inhibitory activity (IC50, nM) JAK2
Sequence of JAK2 (O60674 whole entry): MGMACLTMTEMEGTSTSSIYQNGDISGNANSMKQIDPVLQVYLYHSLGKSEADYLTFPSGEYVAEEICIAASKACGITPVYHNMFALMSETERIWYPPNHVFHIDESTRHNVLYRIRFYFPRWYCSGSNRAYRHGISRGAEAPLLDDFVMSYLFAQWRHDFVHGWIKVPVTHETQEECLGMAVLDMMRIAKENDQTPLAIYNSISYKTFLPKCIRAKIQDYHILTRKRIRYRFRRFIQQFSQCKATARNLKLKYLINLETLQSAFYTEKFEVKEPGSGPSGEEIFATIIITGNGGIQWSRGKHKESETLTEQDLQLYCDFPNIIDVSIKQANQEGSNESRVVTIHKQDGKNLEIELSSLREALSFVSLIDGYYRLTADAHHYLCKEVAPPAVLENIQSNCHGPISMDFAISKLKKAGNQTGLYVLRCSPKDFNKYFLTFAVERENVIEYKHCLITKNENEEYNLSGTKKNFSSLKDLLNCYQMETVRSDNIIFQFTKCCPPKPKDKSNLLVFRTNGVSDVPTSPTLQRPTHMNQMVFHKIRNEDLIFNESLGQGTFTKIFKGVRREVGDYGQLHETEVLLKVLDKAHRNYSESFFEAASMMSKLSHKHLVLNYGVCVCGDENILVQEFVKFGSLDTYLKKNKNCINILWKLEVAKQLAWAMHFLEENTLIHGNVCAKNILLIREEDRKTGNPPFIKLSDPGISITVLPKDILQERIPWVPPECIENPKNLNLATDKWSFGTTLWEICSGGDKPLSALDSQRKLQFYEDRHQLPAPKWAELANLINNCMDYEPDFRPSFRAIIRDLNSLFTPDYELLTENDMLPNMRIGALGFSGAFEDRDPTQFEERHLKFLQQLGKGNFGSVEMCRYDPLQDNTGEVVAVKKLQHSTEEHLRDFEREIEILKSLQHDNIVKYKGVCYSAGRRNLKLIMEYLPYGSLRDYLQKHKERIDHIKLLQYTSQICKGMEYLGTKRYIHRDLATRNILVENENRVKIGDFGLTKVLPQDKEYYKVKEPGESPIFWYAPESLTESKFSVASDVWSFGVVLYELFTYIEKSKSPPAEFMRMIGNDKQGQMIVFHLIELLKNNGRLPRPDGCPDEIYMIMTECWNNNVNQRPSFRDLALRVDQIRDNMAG
Procedure: (§1) The half-inhibition concentration IC50 of the compound (the concentration of the compound required to inhibit the enzyme activity to 50%) is measured by mixing the fixed enzyme with a specific substrate and different concentrations of the test compound. The measurement method used was Caliper Mobility Shift Assay, the kinases measured were JAK1, JAK2, JAK3 and TYK2, and the standard reference compound used was staurosporine.

TYK2 = TYK2 (Homo sapiens, UniProt P29597); experiment: Caliper Mobility Shift Assay, kinase enzyme activity, TYK2; type: biochemical; details: for inhibitory activity on TYK2 (in words): TYK2, summary of Table 1; for IC50: TYK2, read-out: Kinase inhibitory activity (IC50, nM) TYK2
Sequence of TYK2 (P29597 whole entry): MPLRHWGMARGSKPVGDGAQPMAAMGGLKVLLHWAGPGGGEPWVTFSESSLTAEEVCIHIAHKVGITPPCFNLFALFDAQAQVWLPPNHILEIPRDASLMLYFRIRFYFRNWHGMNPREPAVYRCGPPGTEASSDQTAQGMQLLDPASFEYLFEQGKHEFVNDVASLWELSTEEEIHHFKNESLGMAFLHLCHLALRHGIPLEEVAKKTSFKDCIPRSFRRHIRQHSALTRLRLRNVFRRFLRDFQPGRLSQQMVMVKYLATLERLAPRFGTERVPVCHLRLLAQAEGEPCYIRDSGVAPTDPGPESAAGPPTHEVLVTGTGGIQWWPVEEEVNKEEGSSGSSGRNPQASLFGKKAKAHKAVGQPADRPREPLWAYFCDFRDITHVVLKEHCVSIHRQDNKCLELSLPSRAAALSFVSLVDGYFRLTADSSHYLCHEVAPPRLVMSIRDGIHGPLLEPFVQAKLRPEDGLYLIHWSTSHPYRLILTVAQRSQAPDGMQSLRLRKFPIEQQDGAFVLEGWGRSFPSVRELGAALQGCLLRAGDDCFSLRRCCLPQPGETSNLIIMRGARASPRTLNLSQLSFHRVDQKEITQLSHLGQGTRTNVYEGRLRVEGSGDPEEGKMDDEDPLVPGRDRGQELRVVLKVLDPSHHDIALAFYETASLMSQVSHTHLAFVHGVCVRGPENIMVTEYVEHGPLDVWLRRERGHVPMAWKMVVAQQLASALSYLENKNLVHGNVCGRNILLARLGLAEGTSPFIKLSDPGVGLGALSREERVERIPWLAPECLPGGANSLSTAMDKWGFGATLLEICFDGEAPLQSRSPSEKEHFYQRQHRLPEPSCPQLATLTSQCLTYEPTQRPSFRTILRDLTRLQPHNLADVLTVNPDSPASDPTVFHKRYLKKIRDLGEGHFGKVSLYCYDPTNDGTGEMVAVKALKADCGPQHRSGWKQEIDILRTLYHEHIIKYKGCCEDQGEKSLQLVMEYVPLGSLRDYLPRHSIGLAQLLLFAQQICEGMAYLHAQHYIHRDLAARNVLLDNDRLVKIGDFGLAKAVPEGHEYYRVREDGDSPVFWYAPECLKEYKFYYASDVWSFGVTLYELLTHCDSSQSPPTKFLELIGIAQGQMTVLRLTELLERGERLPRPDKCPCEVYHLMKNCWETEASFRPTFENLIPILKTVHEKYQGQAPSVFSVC
Procedure: as §1

JAK3 = molecular target: T1, JAK3 (Homo sapiens, UniProt P52333); experiment: Caliper Mobility Shift Assay, kinase enzyme activity, JAK3; type: biochemical; details: for inhibitory activity on JAK3 (in words): JAK3, summary of Table 1; for IC50: JAK3, read-out: Kinase inhibitory activity (IC50, nM) JAK3
T1 sequence (P52333 1-1124): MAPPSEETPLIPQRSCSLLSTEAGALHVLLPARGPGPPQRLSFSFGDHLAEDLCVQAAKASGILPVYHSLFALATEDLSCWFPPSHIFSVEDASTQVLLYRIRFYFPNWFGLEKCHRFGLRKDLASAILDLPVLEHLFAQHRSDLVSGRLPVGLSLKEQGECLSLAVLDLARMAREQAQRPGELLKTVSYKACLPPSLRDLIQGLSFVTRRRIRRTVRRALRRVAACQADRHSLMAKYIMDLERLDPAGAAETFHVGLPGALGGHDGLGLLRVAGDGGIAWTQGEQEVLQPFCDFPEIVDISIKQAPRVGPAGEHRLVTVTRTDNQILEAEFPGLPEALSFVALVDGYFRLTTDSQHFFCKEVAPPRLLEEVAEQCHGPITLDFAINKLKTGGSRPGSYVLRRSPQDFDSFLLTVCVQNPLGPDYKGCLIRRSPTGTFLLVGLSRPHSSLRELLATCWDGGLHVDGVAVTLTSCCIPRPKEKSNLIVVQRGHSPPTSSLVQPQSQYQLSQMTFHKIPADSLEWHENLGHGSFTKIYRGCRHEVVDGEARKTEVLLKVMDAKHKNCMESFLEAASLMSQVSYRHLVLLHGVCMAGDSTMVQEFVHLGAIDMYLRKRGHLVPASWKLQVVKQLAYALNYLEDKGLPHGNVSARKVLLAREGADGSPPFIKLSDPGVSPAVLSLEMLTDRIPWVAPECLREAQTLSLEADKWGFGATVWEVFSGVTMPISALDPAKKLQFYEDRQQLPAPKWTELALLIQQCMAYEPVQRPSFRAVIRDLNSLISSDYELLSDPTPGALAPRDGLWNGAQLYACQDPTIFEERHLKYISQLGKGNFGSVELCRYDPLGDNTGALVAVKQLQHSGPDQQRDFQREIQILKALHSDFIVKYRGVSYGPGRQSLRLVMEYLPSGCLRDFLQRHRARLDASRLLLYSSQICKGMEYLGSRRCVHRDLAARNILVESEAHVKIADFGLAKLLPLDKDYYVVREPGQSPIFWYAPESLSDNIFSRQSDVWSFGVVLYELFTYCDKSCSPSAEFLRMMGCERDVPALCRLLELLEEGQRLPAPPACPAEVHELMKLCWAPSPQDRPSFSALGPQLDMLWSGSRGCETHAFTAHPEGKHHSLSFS
Procedure: as §1

JAK1 = JAK1 (Homo sapiens, UniProt P23458); experiment: Caliper Mobility Shift Assay, kinase enzyme activity, JAK1; type: biochemical; details: for inhibitory effect on kinase JAK1 (in words): JAK1, summary of Table 1; for IC50: JAK1, read-out: Kinase inhibitory activity (IC50, nM) JAK1
Sequence of JAK1 (P23458 whole entry): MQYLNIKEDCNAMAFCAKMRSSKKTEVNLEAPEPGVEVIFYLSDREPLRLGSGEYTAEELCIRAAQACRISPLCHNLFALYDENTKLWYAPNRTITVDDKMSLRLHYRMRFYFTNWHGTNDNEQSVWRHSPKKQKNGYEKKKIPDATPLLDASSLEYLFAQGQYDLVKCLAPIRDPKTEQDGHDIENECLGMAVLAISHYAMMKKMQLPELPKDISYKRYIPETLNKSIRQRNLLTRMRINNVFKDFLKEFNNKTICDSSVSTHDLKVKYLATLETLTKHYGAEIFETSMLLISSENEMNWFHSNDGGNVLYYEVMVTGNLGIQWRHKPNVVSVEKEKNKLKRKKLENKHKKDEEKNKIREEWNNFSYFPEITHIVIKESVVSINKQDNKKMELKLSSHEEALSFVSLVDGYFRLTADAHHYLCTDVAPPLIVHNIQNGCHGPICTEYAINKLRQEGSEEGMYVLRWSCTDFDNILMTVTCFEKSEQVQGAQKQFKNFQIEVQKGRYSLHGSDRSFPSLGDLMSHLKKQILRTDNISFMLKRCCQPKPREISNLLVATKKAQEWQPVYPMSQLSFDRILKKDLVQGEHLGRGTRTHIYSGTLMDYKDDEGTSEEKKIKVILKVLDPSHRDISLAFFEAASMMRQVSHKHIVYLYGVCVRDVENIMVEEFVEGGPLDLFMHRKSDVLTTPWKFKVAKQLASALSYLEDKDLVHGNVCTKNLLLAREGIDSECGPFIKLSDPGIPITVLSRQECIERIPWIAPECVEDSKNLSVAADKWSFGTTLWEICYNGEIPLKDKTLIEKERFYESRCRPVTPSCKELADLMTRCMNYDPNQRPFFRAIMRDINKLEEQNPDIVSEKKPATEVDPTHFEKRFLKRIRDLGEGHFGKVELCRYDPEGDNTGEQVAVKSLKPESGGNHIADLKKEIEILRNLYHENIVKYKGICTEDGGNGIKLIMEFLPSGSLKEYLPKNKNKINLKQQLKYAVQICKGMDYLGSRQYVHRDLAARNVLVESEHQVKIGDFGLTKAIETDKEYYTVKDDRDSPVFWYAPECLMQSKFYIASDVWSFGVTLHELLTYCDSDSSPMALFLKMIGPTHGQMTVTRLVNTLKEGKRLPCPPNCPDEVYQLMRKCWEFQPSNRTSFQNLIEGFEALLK
Procedure: as §1

[1] = Pharmacokinetics experiment in mice (intravenous and oral); type: in vivo; details: for F: 10 mg/kg oral vs 2 mg/kg intravenous; for AUC(0-t) / MRT inf / clearance / half-life / Vd / Cmax / Tmax: both sexes, mouse, blood, single dose; for half-life: read-out: Terminal t1/2 (converted); for Vd: read-out: Vss
Procedure: Experimental animals: mice, male and female, weight: 23-25 g;
Preparation of the test articles: The target compounds (Ig, Ii, and Ip) were prepared as 0.4 mg/mL (for intravenous administration) and 1.0 mg/mL (for oral administration), for later use. Administration route: oral administration/intravenous injection. Dosing volume and frequency: 5 mL/kg (intravenous injection) or 10 mL/kg (oral administration), single dose.
Sample collection: Blood was collected at the following time points, 5 min, 15 min, 30 min, 1 hr, 2 hr, 4 hr, 8 hr and 24 hr after administration.
Sample analysis: LC-MS/MS method was used to detect the collected samples. The instrument model used was Triple Quad 6500+.
Pharmacokinetic data analysis: WinNolin was used to fit and calculate the obtained blood drug concentration data according to the non-compartmental model method, and partial results are summarized in Table 2.

inhibitory effect on kinase JAK2 (in words) (JAK2)	IC50 (JAK2) [nM]	inhibitory activity on TYK2 (in words) (TYK2)	IC50 (TYK2) [nM]	inhibitory activity on JAK3 (in words) (JAK3)	IC50 (JAK3) [nM]	inhibitory effect on kinase JAK1 (in words) (JAK1)	IC50 (JAK1) [nM]	F [1] [%]	AUC(0-t) ([1]; 2 mg/kg, intravenous injection) [ng·h/mL]	MRT inf ([1]; 2 mg/kg, intravenous injection) [min]	clearance ([1]; 2 mg/kg, intravenous injection) [mL/min/kg]	half-life ([1]; 2 mg/kg, intravenous injection) [min]	Vd ([1]; 2 mg/kg, intravenous injection) [L/kg]	AUC(0-t) ([1]; 10 mg/kg, oral administration) [ng·h/mL]	Cmax ([1]; 10 mg/kg, oral administration) [ng/mL]	Tmax ([1]; 10 mg/kg, oral administration) [min]	half-life ([1]; 10 mg/kg, oral administration) [min]	SMILES
strong inhibitory effect	47	weak inhibitory activity	1230	weak inhibitory activity	2060	strong inhibitory effect	58	51.7	883	26.8	37.5	23.4	0.997	2290	1310	22.5	70.8	CCS(=O)(=O)N1CCC(N2CC(CC#N)(n3cc(-c4ncnc5[nH]ncc45)cn3)C2)CC1 [Compound Ig]
strong inhibitory effect	126	weak inhibitory activity	2660	weak inhibitory activity	3770	strong inhibitory effect	39	37.9	900	35.8	37.3	50	1.32	1710	904	60	59.2	N#CCC1(n2cc(-c3ncnc4[nH]ncc34)cn2)CN(C2CCN(C(=O)c3ccnc(C(F)(F)F)c3F)CC2)C1 [Compound Ii]
strong inhibitory effect	12	weak inhibitory activity	209	weak inhibitory activity	423			99.4	1200	63.6	27.3	83.4	1.74	5950	3380	15	84	CCS(=O)(=O)N1CC(CC#N)(n2cc(-c3ncnc4[nH]ncc34)cn2)C1 [Compound Ip]
